Assay results: patent publication US9062078B2, “Substituted 7-azabicyles and their use as orexin receptor modulators” (priority 2013, dated 2015)
Like-named read-outs stand apart in the source and are kept apart here.

Assays:
human orexin 2 receptor = human orexin 2 receptor (Homo sapiens (Human), UniProt O43614); test: Human orexin 2 receptor radioligand binding (competitive, [3H]-EMPA, HEK293 cell preparations)
rat orexin 1 receptor = rat orexin 1 receptor (Rattus norvegicus, UniProt P56718); test: Rat orexin 1 receptor radioligand binding (competitive, [3H]-SB674042, HEK293 cell preparations)
[1] = human orexin 2 receptor, [3H]-EMPA competition binding, read-out: hOX2 Ki (nm)
[2] = rat orexin 1 receptor, [3H]-SB674042 competition binding, read-out: rOX1 Ki (nm)

Sequence of human orexin 2 receptor (O43614 whole entry): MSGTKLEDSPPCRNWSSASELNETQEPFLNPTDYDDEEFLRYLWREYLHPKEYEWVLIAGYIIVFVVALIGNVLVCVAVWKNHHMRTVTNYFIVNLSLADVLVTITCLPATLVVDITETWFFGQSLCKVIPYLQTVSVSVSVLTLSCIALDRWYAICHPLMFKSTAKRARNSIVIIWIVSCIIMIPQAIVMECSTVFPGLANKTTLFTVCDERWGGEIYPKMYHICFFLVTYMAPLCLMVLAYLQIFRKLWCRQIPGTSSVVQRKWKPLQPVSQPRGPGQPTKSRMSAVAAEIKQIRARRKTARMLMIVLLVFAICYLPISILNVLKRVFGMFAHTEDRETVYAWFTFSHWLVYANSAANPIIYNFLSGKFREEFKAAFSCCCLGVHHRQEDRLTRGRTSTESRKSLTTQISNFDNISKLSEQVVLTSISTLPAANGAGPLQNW

SMILES	Ki (human orexin 2 receptor; [1])	Ki (rat orexin 1 receptor; [2])	Ki (rat orexin 1 receptor; rOX1 Ki (nm))	Ki (human orexin 2 receptor; hOX2 Ki (nm))
Cc1ccc(-c2ncccc2C)c(C(=O)N2C3CCC2C(COc2ncc(F)cn2)C3)n1 (racemic) [Example 98, (±)-(3,6′-dimethyl-[2,3′-bipyridin]-2′-yl)(2-(((5-fluoropyrimidin-2-yl)oxy)methyl)-7-azabicyclo[2.2.1]heptan-7-yl)methanone]	> 10000 nM	> 10000 nM		
Cn1ncc(C(=O)N2C3CCC2C(COc2ccccn2)C3)c1-c1ccccc1 (racemic) [Example 84, (±)-(1-methyl-5-phenyl-1H-pyrazol-4-yl)(−2-((pyridin-2-yloxy)methyl)-7-azabicyclo[2.2.1]heptan-7-yl)methanone]	9700 nM	2600 nM		
CCOc1ccc(C)nc1C(=O)N1C2CCC1C(Nc1cnc3ccccc3n1)C2 (single isomer, unassigned) [Example 229, (±)-(3-ethoxy-6-methylpyridin-2-yl)(2-(quinoxalin-2-ylamino)-7-azabicyclo[2.2.1]heptan-7-yl)methanone]	> 10000 nM	> 10000 nM		
CCOc1nc(C)ccc1C(=O)N1C2CCC1C(COc1ccccn1)C2 (racemic) [Example 158, (±)-(2-ethoxy-6-methylpyridin-3-yl)(2-((pyridin-2-yloxy)methyl)-7-azabicyclo[2.2.1]heptan-7-yl)methanone]	1780 nM	2930 nM		
Cc1cc(-c2ccc(C)nc2C(=O)N2C3CCC2C(COc2ncc(F)cn2)C3)on1 (racemic) [Example 99, (±)-(2-(((5-fluoropyrimidin-2-yl)oxy)methyl)-7-azabicyclo[2.2.1]heptan-7-yl)(6-methyl-3-(3-methylisoxazol-5-yl)pyridin-2-yl)methanone]	2900 nM		1500 nM	
COc1cccc(-c2c(C)cnn2C)c1C(=O)N1[C@@H]2CC[C@H]1[C@H](Nc1cnc(C(F)(F)F)cn1)C2 [Example 292, (2-(1,4-dimethyl-1H-pyrazol-5-yl)-6-methoxyphenyl)((1S,2R,4R)-2-((5-(trifluoromethyl)pyrazin-2-yl)amino)-7-azabicyclo[2.2.1]heptan-7-yl)methanone]	> 10000 nM	> 10000 nM		
Cc1ccc(-n2nccn2)c(C(=O)N2C3CCC2C(COc2cccnc2C)C3)n1 (racemic) [Example 54, (±)-(6-methyl-3-(2H-1,2,3-triazol-2-yl)pyridin-2-yl)(2-(((2-methylpyridin-3-yl)oxy)methyl)-7-azabicyclo[2.2.1]heptan-7-yl)methanone]	2200 nM		3500 nM	
CCOc1ccc(C)nc1C(=O)N1C2CCC1C(Nc1ccc(C(F)(F)F)cn1)C2 (racemic) [Example 194, (±)-(3-ethoxy-6-methylpyridin-2-yl)(2-(5-(trifluoromethyl)pyridin-2-yl)amino)-7-azabicyclo[2.2.1]heptan-7-yl)methanone]	800 nM		450 nM	
Cc1ccc(-n2nccn2)c(C(=O)N2C3CCC2C(COc2ccncn2)C3)n1 (racemic) [Example 61, (±)-(6-methyl-3-(2H-1,2,3-triazol-2-yl)pyridin-2-yl)(2-((pyrimidin-4-yloxy)methyl)-7-azabicyclo[2.2.1]heptan-7-yl)methanone]			2800 nM	> 10000 nM
O=C(c1ccccc1-n1nccn1)N1C2CCC1C(Nc1cccc(C(F)(F)F)n1)C2 (racemic) [Example 209, (±)-(2-(2H-1,2,3-triazol-2-yl)phenyl)(2-(6-(trifluoromethyl)pyridin-2-yl)amino)-7-azabicyclo[2.2.1]heptan-7-yl)methanone]	736 nM	1100 nM		
Cc1cnc(C(=O)N2C3CCC2C(COc2ccccn2)C3)c(-n2nccn2)c1 (racemic) [Example 71, (±)-(5-methyl-3-(2H-1,2,3-triazol-2-yl)pyridin-2-yl)(2-((pyridin-2-yloxy)methyl)-7-azabicyclo[2.2.1]heptan-7-yl)methanone]	3700 nM	1200 nM		
Cc1ccn2c(C)cnc2c1C(=O)N1C2CCC1C(COc1ccccn1)C2 (racemic) [Example 79, (±)-((3,7-dimethylimidazo[1,2-a]pyridin-8-yl)(2-((pyridin-2-yloxy)methyl)-7-azabicyclo[2.2.1]heptan-7-yl)methanone]	8500 nM	2400 nM		
COc1cccc(OC)c1C(=O)N1C2CCC1C(COc1ccc(F)cn1)C2 (racemic) [Example 106, (±)-(2,6-dimethoxyphenyl)(2-(((5-fluoropyridin-2-yl)oxy)methyl)-7-azabicyclo[2.2.1]heptan-7-yl)methanone]	154 nM	300 nM		
Cc1ccn2ccnc2c1C(=O)N1C2CCC1C(COc1ccccn1)C2 (racemic) [Example 80, (±)-(7-methylimidazo[1,2-a]pyridin-8-yl)(2-((pyridin-2-yloxy)methyl)-7-azabicyclo[2.2.1]heptan-7-yl)methanone]	> 10000 nM	1100 nM		
COc1c(F)cccc1C(=O)N1C2CCC1C(Nc1ncc(C(F)(F)F)cn1)C2 (racemic) [Example 222, (±)-(3-fluoro-2-methoxyphenyl)(2-(5-(trifluoromethyl)pyrimidin-2-yl)amino)-7-azabicyclo[2.2.1]heptan-7-yl)methanone]	> 10000 nM		4800 nM	
O=C(c1cccc(F)c1-c1ccncc1)N1[C@@H]2CC[C@H]1[C@H](Nc1cnc(C(F)(F)F)cn1)C2 [Example 268, (3-fluoro-2-(pyridin-4-yl)phenyl)((1S,2R,4R)-2-((5-(trifluoromethyl)pyrazin-2-yl)amino)-7-azabicyclo[2.2.1]heptan-7-yl)methanone]	3700 nM	450 nM		
COc1ccc(C(=O)N2C3CCC2C(COc2ccc(F)cn2)C3)c(-n2nccn2)c1 (racemic) [Example 119, (±)-(2-(((5-fluoropyridin-2-yl)oxy)methyl)-7-azabicyclo[2.2.1]heptan-7-yl)(4-methoxy-2-(2H-1,2,3-triazol-2-yl)phenyl)methanone]	1300 nM	500 nM		
Cc1coc(-c2ccc(C)nc2C(=O)N2C3CCC2C(COc2ccc(F)cn2)C3)n1 (racemic) [Example 177, (±)-(2-(((5-fluoropyridin-2-yl)oxy)methyl)-7-azabicyclo[2.2.1]heptan-7-yl)(6-methyl-3-(4-methyloxazol-2-yl)pyridin-2-yl)methanone]	4000 nM	535 nM		
Cc1ccc(-n2nccn2)c(C(=O)N2C3CCC2C(COc2ccncc2)C3)n1 (racemic) [Example 57, (±)-(6-methyl-3-(2H-1,2,3-triazol-2-yl)pyridin-2-yl)(2-((pyridin-4-yloxy)methyl)-7-azabicyclo[2.2.1]heptan-7-yl)methanone]	7300 nM	1000 nM		
O=C(c1cccc(F)c1-c1ncccn1)N1[C@H]2CC[C@@H]1[C@@H](Nc1cnc(C(F)(F)F)cn1)C2 [Example 297, (3-fluoro-2-(pyrimidin-2-yl)phenyl)((1R,2S,4S)-2-((5-(trifluoromethyl)pyrazin-2-yl)amino)-7-azabicyclo[2.2.1]heptan-7-yl)methanone]	> 10000 nM	> 10000 nM		
CCOc1ccc(C)nc1C(=O)N1C2CCC1C(COc1ccc(F)cn1)C2 (racemic) [Example 118, (±)-(3-ethoxy-6-methylpyridin-2-yl)(2-(((5-fluoropyridin-2-yl)oxy)methyl)-7-azabicyclo[2.2.1]heptan-7-yl)methanone]	2200 nM	440 nM		
CCOc1ncc(-c2ccccc2)cc1C(=O)N1C2CCC1C(COc1ccccn1)C2 (racemic) [Example 160, (±)-(2-ethoxy-5-phenylpyridin-3-yl)(2-((pyridin-2-yloxy)methyl)-7-azabicyclo[2.2.1]heptan-7-yl)methanone]	> 10000 nM	8700 nM		
Cc1cnn(-c2ccc(C)nc2C(=O)N2C3CCC2C(COc2ncc(F)cn2)C3)c1 (racemic) [Example 103, (±)-(2-(((5-fluoropyrimidin-2-yl)oxy)methyl)-7-azabicyclo[2.2.1]heptan-7-yl)(6-methyl-3-(4-methyl-1H-pyrazol-1-yl)pyridin-2-yl)methanone]		1700 nM		3600 nM
Cc1ccc(N2CCN(C)CC2)c(C(=O)N2C3CCC2C(COc2ccccn2)C3)n1 (racemic) [Example 85, (±)-(6-methyl-3-(4-methylpiperazin-1-yl)pyridin-2-yl)(2-((pyridin-2-yloxy)methyl)-7-azabicyclo[2.2.1]heptan-7-yl)methanone]	> 10000 nM	> 10000 nM		
O=C(c1cccc(F)c1-c1ccnnc1)N1[C@@H]2CC[C@H]1[C@H](Nc1cnc(C(F)(F)F)cn1)C2 [Example 264, (3-fluoro-2-(pyridazin-4-yl)phenyl)((1S,2R,4R)-2-((5-(trifluoromethyl)pyrazin-2-yl)amino)-7-azabicyclo[2.2.1]heptan-7-yl)methanone]	> 10000 nM	1400 nM		
Cc1cc(C)nc(NC2CC3CCC2N3C(=O)c2ccccc2-n2nccn2)n1 (racemic) [Example 202, (±)-(2-(2H-1,2,3-triazol-2-yl)phenyl)(2-(((4,6-dimethylpyrimidin-2-yl)amino)-7-azabicyclo[2.2.1]heptan-7-yl)methanone]		760 nM		444 nM
O=C(c1nc2ccccc2cc1-n1nccn1)N1C2CCC1C(COc1ccccn1)C2 (racemic) [Example 74, (±)-(3-(2H-1,2,3-triazol-2-yl)quinolin-2-yl)(2-((pyridin-2-yloxy)methyl)-7-azabicyclo[2.2.1]heptan-7-yl)methanone]	1700 nM		359 nM	
COc1ccc(NC2CC3CCC2N3C(=O)c2ccccc2-n2nccn2)nc1 (racemic) [Example 213, (±)-(2-(2H-1,2,3-triazol-2-yl)phenyl)(2-((5-methoxypyridin-2-yl)amino)-7-azabicyclo[2.2.1]heptan-7-yl)methanone]	7500 nM	2800 nM		
Cc1ccc(-n2nccn2)c(C(=O)N2C3CCC2C(Nc2ncc(C(F)(F)F)cn2)C3)n1 (racemic) [Example 223, (±)-(6-methyl-3-(2H-1,2,3-triazol-2-yl)pyridin-2-yl)(2-((5-(trifluoromethyl)pyrimidin-2-yl)amino)-7-azabicyclo[2.2.1]heptan-7-yl)methanone]	4000 nM		550 nM	
